From patent publication US12076342B2, “Method for generating progenitor t cells from stem and/or progenitor cells and use of same” (THE GOVERNING COUNCIL OF THE UNIVERSITY OF TORONTO, priority 2016, dated 2024)

Experiments:
[1] = system: double negative (DN; CD4− CD8−) thymocytes; assay: DL4-Fc ligand binding to thymocytes
Procedure: Progenitor T cell development in the thymus is characterized by four sequential stages commonly referred to as DN1, DN2, DN3 and DP (DN=double negative and DP=double positive for CD4 and CD8 expression). An ideal defined progenitor T cell differentiation assay should aim to support the expansion of DN3 T cells that are exclusively committed to the T lymphoid lineage. […] Conventional in vitro T cell differentiation is carried out on an OP9 stromal feeder layer in serum-containing medium. The obvious first step in developing a defined assay for T cell differentiation is to establish conditions that eliminate the requirements for both serum and feeders. To replace the OP9 feeder layer, DL4-Fc protein was generated and the purity and functionality of the ligand to bind DN T cells and not DP T cells was verified, as these cell types differentially express the Notch-1 receptor (FIGS. 1a-c). […] Cultures were re-fed after four days and analyzed for progenitor T cell surface markers after seven days (FIG. 2a). Parallel cultures were carried out on untreated surfaces (negative control) and OP9-DL4 stromal co-culture (positive control based on which SCF, Flt3L and IL-7 supplementation concentrations were determined^9). […] The level of lineage skewing to non-T cell fates was also quantified in the absence of Notch ligand in order to assess the default cell differentiation supported by all medium types.

[2] = system: human umbilical cord blood-derived CD34+ HSPCs; assay: Human CD34+ HSPC progenitor T cell differentiation on coated plates; type: cell-based; conditions: serum-free IMDM+BIT
Procedure: For human HSPC culture, umbilical cord blood samples were collected from consenting donors according to ethically approved procedures at Mount Sinai Hospital. CD34+ cells were isolated from the red blood cell (RBC)-lysed cord blood fraction using the EasySep™ Human CD34 Positive Selection Kit (Stemcell Technologies) according to the manufacturer's instructions. Flow cytometry was performed after every enrichment to ensure CD34 frequencies were greater than 95%. CD34+ HSPCs were cultured for 14 days on DL4 and VCAM-1 coated 96-well plates at higher seeding densities of 12,500 HSPCs/cm^2 (corresponding to 4000 cells/well). One complete medium exchange was performed at day 7 of culture and cells were returned to the same DL4 and VCAM-1 coated plates. For certain experiments, DL4-Fc was coated alone or with RetroNectin® (Takara Shuzo) or fibronectin (Sigma Aldrich) as described in the text. CD34+ cells were cultured in serum-free Iscove modified Dulbecco medium (Gibco) with 20% bovine serum albumin, insulin, and transferrin serum substitute (BIT; Stemcell Technologies), 1% GlutaMAX™ (Gibco) and 1 μg/mL low-density lipoproteins (Calbiochem). The medium was added at 50 μL/well supplemented with 100 ng/mL SCF (R&D Systems, Minneapolis, MN), 100 ng/mL Flt3L (R&D Systems), 100 ng/mL Tpo (R&D Systems) and 100 ng/mL IL-7 (R&D Systems).
Surface marker staining was performed with conjugated rat anti-mouse antibodies (BD Biosciences, San Jose, CA, Table 1). All samples were analyzed on a FACSCanto™ or FACS LSRFortessa™ flow cytometer (BD Biosciences). At day 7 of culture, cells were lifted off the plate with multiple HF rinses, stained at 1:400 dilution with antibodies against CD45, CD25, CD44, CD90, CD11 b and CD19 for 20 minutes on ice. […] Integrin expression was analyzed using antibodies against α4, β1, and β7 integrin subunits on Sca-1+cKit+ mouse HSPCs and CD34+ human umbilical blood cells. […] Flow data was analyzed and batch processed using FlowJo® software and further analyzed in Python (version 2.7.10).

[3] = system: sorted sca1+ckit+ fetal-liver HSPCs; assay: Defined T cell differentiation assay on adsorbed ligand, flow cytometry; type: cell-based, mouse
Procedure: FIG. 2a: Schematic for 2D coated DL4 assay, in which sorted E13.5 sca1+ckit+ fetal-liver HSPCs are seeded on coated DL4 ligand in standard 96-well flat bottom plates at 1000 cells/well density in 200 μl test media containing cytokines 25 ng/mL SCF, 5 ng/mL Flt3L and 1 ng/mL IL7; cells are re-fed on day 4 with fresh media containing cytokines; on day 7, cells are assayed for surface marker expression using flow cytometry.
Commercially available DL4-Fc was purchased and used for experiments from Sino Biologicals (Cedarlane Labs, Burlington, Ontario, Canada) or manufactured in-house as described below. DL4-Fc was diluted in chilled phosphate-buffered saline (PBS) at 10 μg/mL or […] and 50 μL/well was coated in standard tissue-culture 96-well plates overnight at 4° C. Wells were washed once with PBS prior to seeding cells to remove any unbound ligand from the wells. For certain experiments, wells were also coated overnight with 50 μL/well PBS containing DL4-Fc and VCAM-1-Fc (R&D) or fibronectin (Sigma) at concentrations described herein.
Sorted sca1+ckit+ HSPCs were cultured at 1000 cells/well (corresponding to 3.1×10^3 cells/cm^2) in DL4-coated 96-well plates in serum-free Iscove modified Dulbecco medium (Gibco, Rockville, MD) with 20% bovine serum albumin, insulin, and transferrin serum substitute (BIT; Stemcell Technologies), 1% GlutaMAX™ (Gibco) and 1 μg/mL low-density lipoproteins (Calbiochem, La Jolla, CA) [IMDM+BIT]. For positive control cultures, OP9 serum medium was used, composed of αMEM medium (Gibco) and 16% FBS (Hyclone™, GE Health). Serum-free αMEM+BIT medium was prepared exactly as IMDM+BIT medium except using αMEM (Gibco) as the base medium. OP9 serum medium, αMEM+BIT or IMDM+BIT serum free medium was added at 200 μL/well supplemented with 25 ng/mL Stem Cell Factor (SCF; R&D Systems, Minneapolis, MN), 5 ng/mL FMS-like Tyrosine Kinase 3 Ligand (Flt3L; R&D Systems) and 1 ng/mL Interleukin-7 (IL-7; R&D Systems) with a 50% medium exchange step at day 4 containing 2-fold concentrated cytokines as described previously^9. Design of Experiment (DOE) in silico modeling was performed using Design-Expert® (v10) using response surface method to investigate the combinatorial desirability of different concentrations of SCF, Flt3L and IL-7 for maximizing DN3 T-cell yield and minimizing the volume of IMDM+BIT medium. After DOE optimization, IMDM+BIT serum-free medium was added at 50 μL/well supplemented with 50 ng/mL SCF (R&D Systems), 10 ng/mL Flt3L (R&D Systems) and 10 ng/mL IL-7 (R&D Systems) unless described otherwise in the text with no medium exchange for the length of the assay. For the candidate factor screening in serum-free IMDM+BIT medium, the following proteins or small molecules were used at the concentrations listed: JAK inhibitor I (50 nM; EMD Millipore), IL-11 (10, 50, and 100 ng/mL; R&D Systems), IL-6 (10, 50, and 100 ng/mL; R&D Systems), IL-6R (100 ng/mL; R&D Systems), Ccl25 (1.5 μg/mL; R&D Systems), IL-7 (50, 100, and 200 ng/mL; R&D Systems), SDF1α (Cxcl12; 200 ng/mL; R&D Systems), and Leukemia Inhibitory Factor (LIF; 0.1, 1, and 10 ng/mL; EMD Millipore).
Surface marker staining was performed with conjugated rat anti-mouse antibodies (BD Biosciences, San Jose, CA, Table 1). All samples were analyzed on a FACSCanto™ or FACS LSRFortessa™ flow cytometer (BD Biosciences). At day 7 of culture, cells were lifted off the plate with multiple HF rinses, stained at 1:400 dilution with antibodies against CD45, CD25, CD44, CD90, CD11 b and CD19 for 20 minutes on ice. Human progenitor T-cells were stained at 1:100 dilution with antibodies against CD34, CD7, CD5 and CD45RA. Integrin expression was analyzed using antibodies against α4, β1, and β7 integrin subunits on Sca-1+cKit+ mouse HSPCs and CD34+ human umbilical blood cells. […]

## DL4: Notch ligand Delta-like-4 extracellular domain fused to the Fc region of human IgG1
[1]
  binding to DN vs. DP thymocytes: binding double negative (DN; CD4− CD8−) and not double positive (DP, CD4+CD8+) thymocytes
[2]; DL4 alone
  generation of CD7+CD34+ cells: can generate CD7+CD34+ cells
[2]; 9 or 14 days, matrix proteins in conjunction with DL4
  generation of later stage progenitor T cells from CD34+ HSPCs: insufficient to drive these progenitor cells to later stages of T cell development
[3]; 20 μg/mL immobilized, no soluble ligand, day 7
  DN3 frequency at 20 μg/mL immobilized ligand: generated DN3 cells at equivalent frequencies as in the 10 μg/mL coated DL4 control
[3]; IMDM+BIT serum-free medium, 7 days of culture
  minimum concentration of adsorbed DL4 that supported DN3 cell generation: 7.5 µg/mL
